Laboratory results taken from patent US8093210B2, “Treatment of sepsis with 5-ethyl-1-phenyl-2(1H)-pyridone” (Solanan, Inc., priority 2008, dated 2012).

System: IL-12
Assay: Serum IL-12 (ELISA) in LPS/D-galactosamine model of sepsis (Example 5)
Format: in vivo, mice
Conditions: 90 minutes after the treatment
Protocol: Mice were treated simultaneously with LPS (10 μg/kg) and D-galactosamine (600 mg/kg) (Galanos C, Freudenberg M A, Reutter W. […] They were anesthetized with halothane and blood was collected at different times by cardiac puncture and centrifuged to separate serum. The serum levels of alanine transaminase (ALT) and aspartate transaminase (AST) were measured by a commercial diagnostic company (Idexx Laboratories). The serum levels of tumor necrosis factor-alpha (TNF-α), interleukin-6 (IL-6) and interleukin-12 (IL-12) were determined by commercially available mouse enzyme-linked immunosorbent assay (ELISA) kits (BD BioSciences, San Jose, Calif.).
The methodology utilized in Example 4 was used to measure and analyze the serum enzyme data for statistical significance. The serum levels of proinflammatory cytokines between the 5-EPP treated and saline control groups were analyzed for statistical significance by one-way ANOVA and a Tukey's multiple comparison test (Prism™ for Windows 4.02, Graphpad Software, Inc. San Diego, Calif.).

## CCc1ccc(=O)n(-c2ccccc2)c1 [5-EPP, 5-ethyl-1-phenyl-2-(1H)-pyridone]
50 mg/kg
  serum level of IL-12: 2,809 ± 325 pg/mL
100 mg/kg
  serum level of IL-12: 1,371 ± 124 pg/mL
200 mg/kg
  serum level of IL-12: 870 ± 99 pg/mL
